One assay deals with β adrenoceptors. Description: radioligand binding studies in lung membrane (Table A, binding affinity). An excerpt:
The results are summarised in Table A. Generally, the activity is better for the trans than the cis isomer.

Assay [1] deals with acetylcholine induced bronchoconstriction. Description: inhibition of acetylcholine induced bronchoconstriction, Konzett and Rossler method (Table B). The class given is in vivo, Male Hartley Guinea Pigs. The settings on record: IV; for inhibition in vivo at 0.46 µmol/kg / inhibition in vivo at 1.5 µmol/kg / inhibition in vivo at 0.42 µmol/kg / inhibition in vivo at 4.18 µmol/kg / inhibition in vivo at 4.8 µmol/kg / inhibition in vivo at 0.47 µmol/kg / inhibition in vivo at 0.13 µmol/kg: Cavia porcellus. The protocol:
Male Hartley Guinea Pigs (450-500 g) were anaesthetised with ethyl carbamate and prepared for recording bronchoconstriction according to Konzett and Rossler method (Naunym Schmiedebergers Arch. Exp. Path. Pharmakol (1940) 195, 71). To abolish spontaneous respiration, an injection IV of vecuronium bromide (2 mg/kg) was made. Bronchoconstriction was induced by IV injection of Acetylcholine and the animals received one dose of β agonist compound (IV) 5 minutes later.

Where [2] appears, read: 5 min, 0.42 μmol/kg, 5 mn, read-out: bronchoconstriction protection, score 5 mn.
Where [3] appears, read: 0.25 h, 0.42 μmol/kg, 15 mn, read-out: bronchoconstriction protection, score 15 mn.
The mark [4] stands for this setting: 0.5 h, 0.42 μmol/kg, 30 mn, read-out: bronchoconstriction protection, score 30 mn.

pKi: −log10 of the molar value. Where two headings read alike, the source gives them in different places. Bounds are passed on as bounds.

For `COc1ccc([C@H]2CC[C@H](CNCC(O)c3ccc(O)c(CO)c3)O2)cc1` (relative stereo) [Example 9 (trans), 2-(4'-methoxyphenyl)-5-[N-[β-(3'-hydroxymethyl-4'-hydroxy-phenyl)-β-hydroxy-ethyl]-aminomethyl]-tetrahydrofuran], the pKi on β adrenoceptors is 6.23. Also, the “bronchoconstriction protection, duration of action” value (shortened to “bronchoconstriction protection”) in assay [1] (0.46 μmol/kg) is above 30 mn. Also, the inhibition in vivo at 0.46 µmol/kg in assay [1] (5 min, 0.46 μmol/kg, 5 mn, read-out: bronchoconstriction protection, score 5 mn) is above 75%; in assay [1] (0.25 h, 0.46 μmol/kg, 15 mn, read-out: bronchoconstriction protection, score 15 mn), 50 to 75%; in assay [1] (0.5 h, 0.46 μmol/kg, 30 mn, read-out: bronchoconstriction protection, score 30 mn) it was 20 to 50%.

Turning to `COc1cc([C@H]2CC[C@@H](CCNCC(O)c3ccc(O)c(CO)c3)O2)cc(OC)c1OC` (relative stereo) [Example 14 (cis), 2-(3',4',5'-trimethoxyphenyl)-5-[N-[β-(3'-hydroxymethyl-4'-hydroxy-phenyl)-β-hydroxy-ethyl]-aminoethyl]-tetrahydrofuran], the negative logarithm of the Ki (pKi) on β adrenoceptors was 5.72. Besides, the “bronchoconstriction protection” value in assay [1] (1.5 μmol/kg) was determined as 30 mn. In addition, the inhibition in vivo at 1.5 µmol/kg in assay [1] (5 min, 1.5 μmol/kg, 5 mn, read-out: bronchoconstriction protection, score 5 mn) was above 75%; in assay [1] (0.25 h, 1.5 μmol/kg, 15 mn, read-out: bronchoconstriction protection, score 15 mn), 20 to 50%; in assay [1] (0.5 h, 1.5 μmol/kg, 30 mn, read-out: bronchoconstriction protection, score 30 mn), 20 to 50%.

Turning to `COc1cc([C@H]2CC[C@H](CCCNCC(O)c3ccc(O)c(CO)c3)O2)cc(OC)c1OC` (relative stereo) [Example 15 (trans), 2-(3',4',5'-trimethoxyphenyl)-5-[-N-[β-(3'-hydroxymethyl-4'-hydroxy-phenyl)-β-hydroxy-ethyl]-aminopropyl]-tetrahydrofuran], at β adrenoceptors, the negative logarithm of the Ki (pKi) is 6.12. The “bronchoconstriction protection” value in assay [1] (0.42 μmol/kg) is 20 mn; in assay [1] (4.18 μmol/kg), above 50 mn. Further, the inhibition in vivo at 0.42 µmol/kg in assay [1] (setting [2]) is above 75%; in assay [1] (setting [3]), 50 to 75%; in assay [1] (setting [4]) it was below 20%. Also, the inhibition in vivo at 4.18 µmol/kg was above 75% in assay [1] (5 min, 4.18 μmol/kg, 5 mn, read-out: bronchoconstriction protection, score 5 mn); above 75% in assay [1] (0.25 h, 4.18 μmol/kg, 15 mn, read-out: bronchoconstriction protection, score 15 mn); 50 to 75% in assay [1] (0.5 h, 4.18 μmol/kg, 30 mn, read-out: bronchoconstriction protection, score 30 mn).

In the case of `OCc1cc(C(O)CNCC2CCC(c3ccccc3)O2)ccc1O` (stereo not drawn) [Example 1, 2-phenyl-5-[N-[β-(3'-hydroxymethyl-4'-hydroxy-phenyl)-β-hydroxy-ethyl]aminomethyl]-tetrahydrofuran], at β adrenoceptors, the pKi is 6.39. In addition, the “bronchoconstriction protection” value in assay [1] (4.8 μmol/kg) is 0 mn. In addition, the inhibition in vivo at 4.8 µmol/kg in assay [1] (5 min, 4.8 μmol/kg, 5 mn, read-out: bronchoconstriction protection, score 5 mn) was below 20%; in assay [1] (0.25 h, 4.8 μmol/kg, 15 mn, read-out: bronchoconstriction protection, score 15 mn), below 20%; in assay [1] (0.5 h, 4.8 μmol/kg, 30 mn, read-out: bronchoconstriction protection, score 30 mn), below 20%.

In turn, `OCc1cc(C(O)CNCC2CCC(c3ccccc3F)O2)ccc1O` (stereo not drawn) [Example 6, 2-(2'-fluorophenyl)-5-[N-[β-(3'-hydroxymethyl-4'-hydroxy-phenyl)-β-hydroxy-ethyl]-aminomethyl]-tetrahydrofuran] had a pKi at β adrenoceptors of 5.74. In addition, the “bronchoconstriction protection” value in assay [1] (0.47 μmol/kg) is given as below 30 mn. The inhibition in vivo at 0.47 µmol/kg fell in the range of 50 to 75% in assay [1] (5 min, 0.47 μmol/kg, 5 mn, read-out: bronchoconstriction protection, score 5 mn); 20 to 50% in assay [1] (0.25 h, 0.47 μmol/kg, 15 mn, read-out: bronchoconstriction protection, score 15 mn); 20 to 50% in assay [1] (0.5 h, 0.47 μmol/kg, 30 mn, read-out: bronchoconstriction protection, score 30 mn).

`OCc1cc(C(O)CNCC2CCC(c3ccncc3)O2)ccc1O` (stereo not drawn) [Example 12, 2-(4'-pyridyl)-5-[N-[β-(3'-hydroxymethyl-4'-hydroxy-phenyl)-β-hydroxy-ethyl]-aminomethyl]-tetrahydrofuran] gave a pKi on β adrenoceptors of 6.46. In addition, the “bronchoconstriction protection” value in assay [1] (0.13 μmol/kg) and in assay [1] (0.42 μmol/kg) was above 30 mn throughout. Besides, the inhibition in vivo at 0.13 µmol/kg fell in the range of 50 to 75% in assay [1] (5 min, 0.13 μmol/kg, 5 mn, read-out: bronchoconstriction protection, score 5 mn); 20 to 50% in assay [1] (0.25 h, 0.13 μmol/kg, 15 mn, read-out: bronchoconstriction protection, score 15 mn); 20 to 50% in assay [1] (0.5 h, 0.13 μmol/kg, 30 mn, read-out: bronchoconstriction protection, score 30 mn). Moreover, the inhibition in vivo at 0.42 µmol/kg in assay [1] (setting [2]) fell in the range of 50 to 75%; in assay [1] (setting [3]), 50 to 75%; in assay [1] (setting [4]) it was 20 to 50%.

One may read the pKi as the negative decadic logarithm of the Ki, by convention in mol/L.

Values taken from US5447942A, “N-derivatives of (phenylethyl-β-ol) amine, a process for their preparation and pharamaceutical compositions containing the same” (Societe de Conseils de Recherches et d'Applications …, priority 1992, dated 1995).
